Reference: patent US20100266604A1, “USE OF TAM RECEPTOR INHIBITORS AS IMMUNOENHANCERS AND TAM ACTIVATORS AS IMMUNOSUPPRESSORS” (The Salk Institute for Biological Studies, priority 2007, published 2010)

What was measured:
Assay type in all cases: cell-based, mouse
[1] = test system: TRAF6 and TRAF3 polyubiquitylation in BM-DCs; assay: Ubiquitylation assay of TRAF6 and TRAF3; conditions: 30 minutes LPS, 2-hour prior incubation with Gas6
Procedure: For ubiquitylation assays, 5×10^6 BM-DCs per condition were harvested in PBS containing 1% SDS and boiled for 5 minutes. PBS containing 1% Triton X-100, 1 mM DTT, 1 mM Na3VO4, 5 mM NaF and protease inhibitors (Complete, Roche) was added and the mixture was sonicated. Lysates were precleared for 1 hour by incubation with Immobilized rProteinA (RepliGen) and incubated overnight with primary antibody at 4° C. Immobilized rProteinA was added for the last 2 hours. The immunoprecipitates were washed in PBS containing 0.2% NP-40 and 0.5 M LiCl and resuspended and boiled in NuPage LDS sample buffer (Invitrogen) with 100 μM DTT.

[2] = test system: IRF-7 and IFI-204 mRNA in DCs; assay: Q-PCR of IRF-7 and IFI-204 mRNA in DCs; conditions: BM-DCs, addition of Gas6 alone
Procedure: (§1) Splenic DCs (1×10^6 cells/ml) or BM-DCs (5×10^6 cells/ml) were cultured in serum-free medium and treated with the indicated concentrations of murine recombinant Gas6, murine recombinant Protein S, the TLR ligands indicated above, recombinant mouse IFNα (PBL Biomedical laboratories), recombinant mouse Axl-FC chimera (R&D), cyclohexamide (Sigma) or Actinomycin D (Sigma). Whole cell lysates and RNA extraction were performed as indicated below.
(§2) After stimulation, cells were harvested, and total RNA was isolated using the RNeasy mini kit (Qiagen). Reverse transcription was performed according to manufacturer instructions with RT Superscript III (Invitrogen). PCR reactions were performed on an ABI Prism 7700 Sequence Detection System using SYBRGreen PCR master mix (Applied Biosystems). Each reaction was normalized against the expression of β-actin or GAPDH. Analyses of dissociation curves were performed with SDS software (Applied Biosystems) to ensure the absence of nonspecific amplification. Q-PCR primers used herein are listed below.

[3] = test system: IRAK-M, SHIP, ATF-3, IRF-4, Triad3A and Tollip mRNA in BM-DCs; assay: Q-PCR of other negative regulators of TLR signaling; conditions: following TAM receptor activation with 50 nM Gas6
Procedure: as §1, §2

[4] = test system: IκBα and IκBβ degradation (NF-κB pathway) in BM-DCs; assay: Quantitative Li-Cor Odyssey Western blot of TLR-induced IκB degradation
Procedure: as §1
(§3) DCs were washed in PBS and harvested in NuPage LDS sample buffer (Invitrogen) with 100 μM DTT. Whole cell lysates were resolved by electrophoresis, proteins were transferred to a PVDF membrane (Immobilon P, Millipore), blocked in 3% BSA/TBS-Tween-20 and probed with the indicated antibodies. For fluorescent western blotting with the Odyssey system, proteins were transferred to an Immobilon-FL PVDF membrane (Millipore) and incubated with two primary antibodies in 0.1% casein/PBS-Tween-20. Following incubation with fluorescence-labeled secondary antibodies, membranes were scanned with the Odyssey imaging system (LI-COR).

[5] = test system: TLR-induced cytokine production in DCs; assay: DC activation assay: TLR-induced cytokine production (ELISA / ISRE luciferase reporter)
Procedure: Splenic DC or BM-DCs (1×10^6 cells/ml) were cultured overnight in serum-free medium (StemSpan, StemCell Technologies Inc.) in the presence of the indicated concentrations of LPS from Salmonella minnesota R595 Re (Alexis), CpG-ODN 1668 (TCCATGACGTTCCGATGCT; SEQ ID NO: 19; Integrated DNA Technologies) or Poly I:C (InvivoGen) alone or in the presence of murine recombinant Gas6 (R&D Systems) or murine recombinant Protein S (produced as described in Prasad et al., (2006) Mol Cell Neurosci 33:96-108). Cytokine production was quantified in cell-free supernatants by ELISA (ebioscience for IL-12, IL-6 and TNFα and PBL-biomedical for IFNα) or by a luciferase assay using a cell line containing an ISRE-responsive element luciferase reporter construct for Type I IFN (Jiang et al., (2005) Nat Immunol 6:565-570).

[6] = test system: phospho-STAT1 (Y701), phospho-STAT2, phospho-STAT3 in DCs; assay: Immunoblot of STAT phosphorylation in DCs
Procedure: as §1, §3

[7] = test system: p38 and ERK1/2 phosphorylation in BM-DCs; assay: Immunoblot of TLR-induced MAP kinase activation (phospho-p38, phospho-ERK1/2)
Procedure: as §1, §3

[8] = test system: DCs; assay: DC viability after Gas6 treatment
[9] = test system: SOCS1 and SOCS3 mRNA in DCs; assay: Q-PCR of SOCS1 and SOCS3 mRNA in DCs
Procedure: as §1, §2

[10] = poly I:C, prior treatment with Gas6

Gas6: murine recombinant Gas6 (R&D Systems), TAM receptor ligand/agonist
LPS-induced polyubiquitylation of TRAF6 and TRAF3 [1]: potently inhibited | induction of IRF-7 and IFI-204 [2]: not induced | induction of IRAK-M, SHIP, ATF-3, IRF-4, Triad3A, Tollip mRNAs [3]: none of these mRNAs displayed significant induction | CpG-induced degradation of IκBα and IκBβ ([4]; BM-DCs, prior incubation with ligand): completely blocked | kinetics and magnitude of CpG-induced degradation of IκBα and IκBβ ([4]; in the presence of cycloheximide or actinomycin D): the same, irrespective of the presence or absence of Gas6 | Activation of the NF-κB pathway by TLR3 [4, 10]: inhibited | LPS-induced production of IL-6 ([5]; Ifnar−/− DCs, Gas6): unable to inhibit | expression of IL6 triggered by LPS or CpG ([5]; STAT1−/− DCs, 50 nM Gas6, 15 hours): not inhibited | poly I:C-induced Type I IFN ([5]; TLR3 activated by poly I:C, 15 hours, 50 nM Gas6): comparable Gas6-mediated inhibition | LPS-induced IL6 and TNFα production ([5]; TLR4 activated by LPS, 15 hours, 50 nM Gas6): comparable Gas6-mediated inhibition | TLR9-induced production of Type I IFNs, IL6, and TNFα ([5]; wild-type DCs, overnight (15 hours) co-incubation with CpG, 50 nM Gas6): substantially inhibited | activation of STAT2 and 3 ([6]; DC cultures, addition of Gas6): not detected | STAT1 tyrosine phosphorylation ([6]; Ifnar−/− BM-DCs, Gas6 application): incapable of activating STAT1 | STAT1 activation (phospho-STAT1 Y701) ([6]; TAM triple mutant DCs, Gas6): not seen | STAT1 activation (phospho-STAT1 Y701) ([6]; wild-type DCs, incubation with Gas6): activated | CpG-induced phosphorylation of p38 and ERK1/2 ([7]; 1 μM CpG, 2-hour prior incubation with ligand): completely blocked | activation of p38 and ERK1/2 as a consequence of TLR4 ligation ([7]; LPS, prior incubation with Gas6): inhibited | Activation of the MAP kinase pathway by TLR3 [7, 10]: inhibited | DC viability [8]: unaffected | SOCS3 mRNA peak expression ([9]; BM-DCs, 50 nM Gas6, around 90 minutes): approximately 10 fold | SOCS1 expression ([9]; Ifnar−/− DCs, Gas6): unable to up-regulate | Gas6-mediated induction of SOCS1 mRNA ([9]; STAT1−/− DCs): completely abolished | Gas6 induction of SOCS3 mRNA ([9]; STAT1−/− DCs): substantially reduced | SOCS1 mRNA expression increase ([9]; WT BM-DCs, 50 nM Gas6, 120 minutes): approximately 10 fold
